# According to patent US9409952B2, “Peptide-compound cyclization method” (Chugai Seiyaku Kabushiki Kaisha, priority 2011, dated 2016):
# Positions of bridges follow the written chain, without caps; N, C: chain ends. Non-standard residues stand in square brackets, D forms with d. Residues, ends and D or L forms follow the SMILES beside them. ξ: configuration not given here. *: point of attachment. Cha = N[C@@H](CC1CCCCC1)C(=O)O; Thr(3ξ) = CC(O)[C@H](N)C(=O)O; NMeA = CN[C@@H](C)C(=O)O; Piperidide = C1CCN(*)CC1
# How the values were obtained:
# [1] = Identification of the metabolic site in mouse liver microsome (LC/MS); assay type: in vitro ADME; settings: 10 uM, mouse liver microsome 0.5 mg protein/mL, 1 hour, with NADPH
# Method: Compound P-113 cyclized peptide was metabolically reacted at a concentration of 10 uM with a microsome solution prepared at 0.5 mg protein/mL from mouse liver (male, manufactured by XENOTECH, USA) using 100 mM phosphate buffer (pH 7.4) for 1 hour in the presence of NADPH (FIG. 35). After the reaction, deproteinization treatment with acetonitrile was provided, and the resulting metabolites were analyzed with a high resolution LC/MS instrument (Q-TOF Ultima API, manufactured by Waters Corporation, USA). Mass chromatograms of the metabolites are shown below. […] MS/MS spectra of the peaks are shown below, respectively. The metabolites of Peak 1 and Peak 2 were assumed to be hydroxylated in the partial structures containing highly lipophilic side chain cyclohexyl groups. […] The metabolite of Peak 4 was assumed to have a thiol-containing site oxidized. Taking the ease of oxidation of this site into consideration, it was believed that the sulfur atom is likely to be the metabolic site.
# [2] = side chain carboxyl group, phenolic hydroxy group or tetrazole; cited from earlier work
Structure (SMILES),metabolites detected [1],pKa as an acid [2]
"CC(C)C[C@@H]1NC(=O)CSC[C@@H](C(=O)N[C@@H](CC2CCCCC2)C(=O)N2CCCCC2)NC(=O)[C@H](C)NC(=O)[C@H](C(C)O)NC(=O)[C@H]([C@@H](C)O)NC(=O)[C@H](CC2CCCCC2)NC(=O)[C@H](C)N(C)C1=O (stereo partly drawn) [Compound P-113, Ac*-Leu-MeAla-Cha-Thr-Thr-Ala-Cys*-Cha-piperidine] ({CH2CO}-L[NMeA][Cha]T[Thr(3ξ)]AC[Cha]-Piperidide; thioether N-7)",Four peaks corresponding to hydroxides,–
c1nnn[nH]1 [Tetrazole],–,5.6
